Source: PubChem BioAssay (NCI)
“And” between values parts separate entries of the source, which are not always exact repeats. Identical values can stand only once.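 48-hour exposure; five concentrations; linearly interpolated endpoints. GI50 = concentration required for 50% inhibition of growth. Definition used: TGI = concentration required for complete inhibition of growth.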

Assays:
Experiment in all cases: growth of human tumour cells (NCI), 48 h
[1] = test system: MCF7 breast
[2] = test system: UO-31 renal
[3] = test system: SK-MEL-28 melanoma
[4] = test system: SF-268 CNS
[5] = test system: A498 renal
[6] = test system: OVCAR-4 ovarian
[7] = test system: EKVX NSCLC
[8] = test system: K-562 leukemia
[9] = test system: A549 NSCLC
[10] = test system: MDA-MB-231 breast

Compound | GI50 [1] [µM] | TGI [1] [µM] | GI50 [2] [µM] | TGI [2] | GI50 [3] [µM] | TGI [3] | GI50 [4] [µM] | TGI [4] | GI50 [5] [µM] | TGI [5] | GI50 [6] [µM] | TGI [6] | GI50 [7] [µM] | TGI [7] | GI50 [8] [µM] | TGI [8] | GI50 [9] [µM] | TGI [9] | GI50 [10] [µM] | TGI [10] [µM]
CCCN1C(=O)/C(=c2\sc3n(c2=O)C2C(NN=3)N(CC)C(=O)N2CC)c2ccccc21 (stereo not drawn) | 0.396 | > 32.9 | 0.744 | 17.6 µM | 1.18 | 29.1 µM | 0.959 | 19 µM | 0.188 | 0.77 µM | 0.933 | 12.8 µM | 0.729 | > 57.2 µM | 0.374 | > 100 µM | 0.854 | 16.5 µM | 1.41 | 12.4
C[C@]12CC[C@H]3[C@@H](CCC4=CC(=O)CC[C@@H]43)[C@@H]1CC[C@@H]2OC(=O)N(CCCl)N=O | 7.07 | 29.8 | 0.837 | 14.1 µM | 11.6 | 26.1 µM | 0.167 | 17.6 µM | 1.9 | 5.51 µM | 10.8 | 31.2 µM | 3.67 | 36.6 µM | 2.9 | 56 µM | 0.393 | 14.8 µM | 14.2 | 37.9
CC(=O)OC1c2ccccc2CC2(OC(C)=O)c3ccccc3C12 (stereo not drawn) |  | > 100 |  | > 100 µM |  | > 100 µM |  | > 100 µM |  | > 100 µM |  | > 100 µM |  | > 100 µM |  | > 100 µM |  | > 100 µM |  | > 100
CCN=C1C=CC(=C(c2ccc(N(C)C)cc2)c2ccc(N(C)C)cc2)c2ccccc21 | 0.141 | 1.09 | 0.196 | 0.663 µM | 0.15 | 1.66 µM | 0.114 | 0.981 µM | 0.16 | 0.453 µM | 0.114 | 1.6 µM | 0.0445 | 0.488 µM | 0.0557 | 2.17 µM | 0.0312 | 0.176 µM | 0.171 | 1.3
Cn1c(=O)c2[nH]c(/N=N/N3CCN(CCO)CC3)nc2n(C)c1=O |  | > 100 |  | > 100 µM |  | > 100 µM |  | > 100 µM |  | > 100 µM |  | > 100 µM |  | > 100 µM |  | > 100 µM |  | > 100 µM |  | > 100
N=C(N)c1nn(C2OC(CO)C(O)C2O)c2nc[nH]c(=O)c12 (stereo not drawn) | 0.482 | 5.09 | 0.332 | 2.62 µM | 0.336 | 1.55 µM | 0.445 | 3.04 µM | 1.46 | 4.74 µM | 0.647 | 7.84 µM | 0.493 | 3.95 µM | 0.367 | 3.63 µM | 0.659 | 13.4 µM | 0.248 | 0.778
N#CSc1ncnc2nc[nH]c12 | 2.35 | > 79.4 | 10.4 | > 100 µM | 44.4 | > 100 µM | 4.24 | > 41.1 µM | 24.1 | > 100 µM | 2.37 | > 100 µM | 41.8 | > 100 µM | 1.24 | > 100 µM | 50.2 | > 100 µM | 11.2 | > 100
CCOC(=O)Cc1c[nH]c(=S)[nH]c1=O | > 100 | > 100 | > 100 | > 100 µM | > 100 | > 100 µM | > 100 | > 100 µM | > 100 | > 100 µM | > 100 | > 100 µM | > 100 | > 100 µM | > 100 | > 100 µM | > 100 | > 100 µM | > 100 | > 100
CC[C@H](Nc1nc(N)nc(C)c1C#N)c1nc2cccc(CN(C)c3ncc(C(=O)NO)cn3)c2c(=O)n1-c1ccccc1 | 0.915 | > 24.5 | 1 | 3.05 µM | 0.604 | 3.16 µM | 1.09 | 4.19 µM | 0.295 | 1.13 µM | 1.01 | 6.56 µM | 1.69 | 16.9 µM | 0.39 | > 50 µM | 2.06 | 11.1 µM | 0.779 | 3.08
C=C(C)[C@@H]1CC=C(CO)CC1 |  | > 10 | > 10 | > 10 µM and 1050 µM | > 10 | > 10 µM and 829 µM | > 10 | > 10 µM and 709 µM | > 10 | > 10 µM and 1170 µM | > 10 | > 10 µM and 1130 µM | > 10 | > 10 µM and 1250 µM | > 10 | > 10 µM and 1140 µM | > 10 | > 10 µM and 755 µM |  | > 10
CN(C)CCNC(=O)c1cccn2c(=O)c3cc4ccccc4cc3nc12 | 0.232 | > 100 |  |  | 0.424 | 2.9 µM | 0.126 | 3.38 µM | 0.122 | 0.667 µM | 0.323 | 7.67 µM | 0.353 |  | 0.208 | 40.8 µM |  |  | 0.316 | 8.84
